Assay results taken from ChEMBL document CHEMBL4346754, “Further exploration of an N-aryl phenoxyethoxy pyridinone-based series of mGlu3 NAMs: Challenging SAR, enantiospecific activity and in vivo efficacy” (Bioorg Med Chem Lett, 2019).
Calls of active or inactive are those of the source. The rule behind the calls is not given here.

Assays:
[1] = target: T1, Metabotropic glutamate receptor 3 (Rattus norvegicus, UniProt P31422); assay: Negative allosteric modulation of rat mGlu3R expressed in HEK cells harboring GIRK assessed as reduction in glutamate-induced thallium flux; format: cell-based
[2] = Permeability coefficient, Kp in rat brain; format: ADME, tissue-based
[3] = Fraction unbound in rat brain homogenate; format: ADME, tissue-based
[4] = target: Metabotropic glutamate receptor 3 (Rattus norvegicus) (UniProt P31422); assay: Negative allosteric modulation of rat mGlu3R expressed in HEK293 cells co-expressing Galpha15 assessed as decrease in glutamate-induced calcium mobilization relative to glutamate; format: functional, cell-based; design: concentration or dose not given beside the values
[5] = Fraction unbound in rat plasma; format: ADME, cell-free
[6] = Volume of distribution at steady state in iv dosed rat; format: ADME, organism-based; conditions: in vivo, read-out: Vdss
[7] = Drug level in mouse plasma at 10 mg/kg, ip; format: ADME, organism-based; conditions: in vivo
Mus musculus [8] = assay: Antidepressant activity in ip dosed C57BL6/J mouse as […] in immobility time by tail suspension test; format: functional; conditions: read-out: MED
Mus musculus [9] = assay: Anti-anxiety activity in C57BL/6J mouse assessed as increase in total time spent in open arms at 10 mg/kg, ip treated for 15 mins by elevated zero maze assay; format: functional, organism-based
Mus musculus [10] = assay: Antidepressant activity in ip dosed C57BL6/J mouse as total time of immobile by tail suspension test relative to control; format: functional, organism-based
[11] = Plasma clearance in iv dosed rat; format: ADME, organism-based
[12] = MRT in iv dosed rat; format: ADME, organism-based; conditions: in vivo
[13] = Unbound brain to plasma concentration ratio in rat; format: ADME, cell-free; conditions: read-out: K(p,uu,brain)
[14] = Brain to plasma permeability coefficient, Kp in mouse at 10 mg/kg, ip; format: ADME, organism-based
Mus musculus [15] = assay: Anti-anxiety activity in C57BL/6J mouse assessed as reduction in number of marbles buried at 10 mg/kg, ip treated for 15 mins by marble burying assay; format: functional, organism-based
[16] = Half life in iv dosed rat; format: ADME, organism-based; conditions: in vivo
[17] = Drug level in mouse brain at 10 mg/kg, ip; format: ADME, organism-based; conditions: in vivo, read-out: Ct
Mus musculus [18] = assay: Anti-anxiety activity in C57BL/6J mouse assessed as increase in total number of open arm entries at 10 mg/kg, ip treated for 15 mins by elevated zero maze assay; format: functional, organism-based
[19] = target: T1, Metabotropic glutamate receptor 3; assay: Negative allosteric modulation of rat mGlu3R expressed in HEK cells harboring GIRK assessed as reduction in glutamate-induced thallium flux preincubated for 5 mins followed by glutamate addition and measured after 2 mins by BTC-AM-dye based fluorescence assay; format: cell-based
Mus musculus [20] = assay: Anti-anxiety activity in C57BL/6J mouse assessed as increase in total number of open arm entries at 15 mg/kg, ip treated for 15 mins by elevated zero maze assay; format: functional, organism-based
Mus musculus [21] = assay: Anti-anxiety activity in C57BL/6J mouse assessed as increase in total time spent in open arms at 15 mg/kg, ip treated for 15 mins by elevated zero maze assay; format: functional, organism-based
Mus musculus [22] = assay: Anti-anxiety activity in C57BL/6J mouse assessed as reduction in number of marbles buried at 15 mg/kg, ip treated for 15 mins by marble burying assay; format: functional, organism-based

T1 sequence (P31422 whole entry): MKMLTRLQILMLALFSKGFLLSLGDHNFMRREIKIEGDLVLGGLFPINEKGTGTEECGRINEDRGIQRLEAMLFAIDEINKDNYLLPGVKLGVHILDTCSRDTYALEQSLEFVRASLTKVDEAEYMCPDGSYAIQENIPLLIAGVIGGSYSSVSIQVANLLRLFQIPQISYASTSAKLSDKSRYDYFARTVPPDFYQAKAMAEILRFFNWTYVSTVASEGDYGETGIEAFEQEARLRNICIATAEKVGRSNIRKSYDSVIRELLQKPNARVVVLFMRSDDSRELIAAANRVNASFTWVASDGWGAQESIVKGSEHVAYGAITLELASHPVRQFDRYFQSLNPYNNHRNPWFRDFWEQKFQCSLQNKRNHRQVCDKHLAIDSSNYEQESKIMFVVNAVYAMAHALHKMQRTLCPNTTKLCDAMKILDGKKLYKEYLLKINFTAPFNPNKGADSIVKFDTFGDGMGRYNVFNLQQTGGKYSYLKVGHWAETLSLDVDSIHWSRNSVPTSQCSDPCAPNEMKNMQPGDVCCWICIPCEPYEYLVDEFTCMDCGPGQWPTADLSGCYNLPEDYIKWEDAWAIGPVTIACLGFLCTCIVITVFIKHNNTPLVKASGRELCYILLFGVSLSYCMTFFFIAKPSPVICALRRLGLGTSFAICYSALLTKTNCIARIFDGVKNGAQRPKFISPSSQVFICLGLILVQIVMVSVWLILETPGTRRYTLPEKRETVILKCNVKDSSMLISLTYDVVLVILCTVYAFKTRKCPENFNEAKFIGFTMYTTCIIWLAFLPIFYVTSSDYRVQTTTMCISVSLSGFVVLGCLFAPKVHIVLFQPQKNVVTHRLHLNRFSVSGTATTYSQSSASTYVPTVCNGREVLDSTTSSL
Chain of Metabotropic glutamate receptor 3 (Rattus norvegicus) (P31422 23-879 limits assumed): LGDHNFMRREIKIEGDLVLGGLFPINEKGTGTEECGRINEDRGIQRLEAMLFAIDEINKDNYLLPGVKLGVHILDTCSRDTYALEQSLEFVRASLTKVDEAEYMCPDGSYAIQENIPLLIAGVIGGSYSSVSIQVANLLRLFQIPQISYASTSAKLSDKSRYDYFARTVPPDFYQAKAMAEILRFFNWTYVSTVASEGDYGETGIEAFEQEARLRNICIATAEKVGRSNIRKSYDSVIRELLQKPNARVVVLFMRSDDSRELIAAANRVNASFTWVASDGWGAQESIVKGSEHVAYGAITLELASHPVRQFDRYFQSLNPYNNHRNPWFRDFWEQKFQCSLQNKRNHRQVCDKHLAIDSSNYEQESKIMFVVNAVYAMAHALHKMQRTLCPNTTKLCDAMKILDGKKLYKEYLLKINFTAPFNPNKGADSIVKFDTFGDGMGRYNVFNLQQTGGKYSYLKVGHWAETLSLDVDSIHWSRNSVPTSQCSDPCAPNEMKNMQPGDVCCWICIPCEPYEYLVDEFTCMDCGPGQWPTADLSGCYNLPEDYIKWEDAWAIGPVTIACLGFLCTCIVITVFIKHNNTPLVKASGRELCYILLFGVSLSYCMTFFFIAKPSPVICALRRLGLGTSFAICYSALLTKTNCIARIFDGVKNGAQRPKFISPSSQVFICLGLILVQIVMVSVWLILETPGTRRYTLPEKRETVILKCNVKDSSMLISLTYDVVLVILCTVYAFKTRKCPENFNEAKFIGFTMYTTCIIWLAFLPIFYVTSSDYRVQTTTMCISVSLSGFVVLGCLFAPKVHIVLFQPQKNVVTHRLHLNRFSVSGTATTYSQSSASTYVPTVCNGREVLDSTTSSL

| Structure (SMILES) | IC50 [1] [µM] | Activity [4] [%] | further results |
| --- | --- | --- | --- |
| CC(COc1ccccc1)COc1ccn(-c2ccc(Cl)cc2)c(=O)c1 (single isomer, unassigned) | 0.92 | 36 | Kp [2]: 1.6; fraction unbound [3]: 0.008; fraction unbound [5]: 0.01 |
| Cc1cccc(-n2ccc(OCC(C)COc3ccccc3)cc2=O)c1 (racemic) [listing 1 of 2 here] | 3.2 |  |  |
| Cc1cccc(-n2ccc(OCC(C)COc3ccccc3)cc2=O)c1 (single isomer, unassigned; form 1) [listing 1 of 2 here] | 3.1 |  |  |
| Cc1cccc(-n2ccc(OCC(C)COc3ccccc3)cc2=O)c1 (single isomer, unassigned; form 2) [listing 1 of 2 here] |  | -7.3 |  |
| Cc1cccc(-n2ccc(OCC(C)COc3ccccc3)cc2=O)c1 (racemic) [listing 2 of 2 here] |  | 4.6 |  |
| CC(COc1ccccc1)COc1ccn(-c2ccc(F)cc2)c(=O)c1 (racemic) | 3.2 | 6.6 |  |
| Cc1cccc(-n2ccc(OCC(Oc3ccccc3)c3ccccc3)cc2=O)c1 (configuration not stated) | > 10 | 14 |  |
| O=c1cc(OCC2CCc3ccccc3O2)ccn1-c1ccc(F)cc1 (racemic) | 7.7 | -1.7 |  |
| C[C@@H](COc1ccccc1)Oc1ccn(-c2ccc(F)cc2)c(=O)c1 | > 10 | 32 |  |
| Cc1cccc(-n2ccc(O[C@H](C)COc3ccccc3)cc2=O)c1 | 1.5 | -4.3 | Vd [6]: 3.82 L/kg; concentration [7]: 272 nM; minimal effective dose (Mus musculus [8]): 10 mg/kg; Activity (Mus musculus [9]): Active; Activity (Mus musculus [10]): inactive; clearance [11]: 31 mL/min/kg; MRT [12]: 2.05 h; Kp uu [13]: 0.53; Kp [2]: 1.6; fraction unbound [3]: 0.018; Kp [14]: 1.42; Activity (Mus musculus [15]): Active; fraction unbound [5]: 0.055; half-life [16]: 2 h; concentration [17]: 386 nM; Activity (Mus musculus [18]): Active |
| Cc1cccc(-n2ccc(OC[C@H](C)Oc3ccccc3)cc2=O)c1 | 1.3 | -7.4 |  |
| Cc1cccc(-n2ccc(OC[C@@H](C)Oc3ccccc3)cc2=O)c1 | > 10 | 4.7 |  |
| C[C@@H](COc1ccn(-c2ccc(F)cc2)c(=O)c1)Oc1ccccc1 |  | -5.7 | Vd [6]: 2.05 L/kg; minimal effective dose (Mus musculus [8]): 10 mg/kg; clearance [11]: 76.3 mL/min/kg; IC50 [19]: 1.28 to 1.3 µM; MRT [12]: 0.448 h; half-life [16]: 0.39 h |
| CC(COc1ccccc1)COc1ccn(-c2cccc(Cl)c2)c(=O)c1 (single isomer, unassigned) | 1.4 | -4.4 |  |
| C[C@H](COc1ccccc1)Oc1ccn(-c2cccc(Cl)c2)c(=O)c1 | 0.52 | -11 | Kp uu [13]: 0.44; Kp [2]: 1.42; fraction unbound [3]: 0.014; fraction unbound [5]: 0.045 |
| C[C@H](COc1ccccc1)Oc1ccn(-c2ccc(Cl)cc2)c(=O)c1 | 2.7 | -7.9 |  |
| Cc1cccc(-n2ccc(OCC(C)COc3ccccc3)cc2=O)c1 (single isomer, unassigned; form 2) [listing 2 of 2 here] | 1.3 |  |  |
| Cc1cccc(-n2ccc(OCC(C)COc3ccccc3)cc2=O)c1 (single isomer, unassigned; form 1) [listing 2 of 2 here] |  | -6.6 |  |
| Cc1cccc(-n2ccc(OCC3CCc4ccccc4O3)cc2=O)c1 (racemic) | 4.1 | -0.77 |  |
| C[C@H](COc1ccn(-c2ccc(F)cc2)c(=O)c1)Oc1ccccc1 | > 10 | 1.3 |  |
| COc1ccc(-n2ccc(O[C@H](C)COc3ccccc3)cc2=O)cc1 | > 10 | 19 |  |
| CN(C)CCCC1(c2ccc(F)cc2)OCc2cc(C#N)ccc21 (configuration not stated) |  |  | Activity (Mus musculus [20]): Active; Activity (Mus musculus [10]): inactive; Activity (Mus musculus [21]): Active; Activity (Mus musculus [22]): Active |
| C[C@H](COc1ccccc1)Oc1ccn(-c2ccc(F)cc2)c(=O)c1 | 3 | -2.2 |  |
| O=c1cc(OCC(Oc2ccccc2)c2ccccc2)ccn1-c1ccc(F)cc1 (configuration not stated) | > 10 | 4.9 |  |
